The source of these data is US20100311674A1, “PHARMACEUTICAL COMPOSITIONS WITH A MECHANISM OF MULTI-TARGET RECEPTOR RETROACTION FOR TREATING DEPRESSION” (Yu-Fen Chi, priority 2007, published 2010).

One experiment concerns ICR mice. The experiment in a line: Resetpine-induced mouse body temperature decrease experiment (Experiment 4). It is filed as in vivo. From the text: 4.1 Experimental animals: ICR mice, male, 22.0±2 g of body weight, secondary, are provided by the Experimental Animal Science Department of Capital Medical University, Beijing.
4.2 Experiment pharmaceuticals: The pharmaceutical of Embodiment 2 is provided by Beijing Wonner Biotech. Ltd. Co., Paroxetine (Paxil) is the product of Zhong Mei Tianjin Smith Kline pharmaceuticals Co. Ltd., and Resetpine is the product of Guangdong BangMin Pharmaceutical Co., Ltd.
4.4 Dose designs: 1. High dose of Embodiment 2 (80 mg/kg/d); 2. middle dose of Embodiment 2 (40 mg/kg/d); and 3. low dose of Embodiment 2 (20 mg/kg/d).
4.5.1 Group division and administration of drug: The mice are grouped randomly, and 10 mice are in each group. 1. High dose of Embodiment 2 (80 mg/kg, P.O., administered for 7 days); 2. middle dose of Embodiment 2 (40 mg/kg, P.O., administered for 7 days); 3. low dose of Embodiment 2 (20 mg/kg, P.O., administered for 7 days); 4.
4.5.2 Experimental method: After 1 hour of the last administration of drug on the eighth day, the mouse's anal temperature is determined. […] After 4 hours of injecting Resetpine, the mouse's anal temperature is determined once again. […]
4.5.3 Statistic calculation: The experimental data are represented as X±SD, and the experimental result is calculated as ANOVA by SPSS 11.5 statistic software.

Experiment [1] relates to rat olfactory bulb lesion model. The experiment in a line: Open field activity experiment of the rat olfactory bulb lesion model (Experiment 7). It is filed as in vivo. The settings on record: 2 mg/kg/d into the stomach, 24 days; within 3 minutes. As for the experimental part: (§1) Olfactory bulb lesion model: Health Wistar male rats, secondary, 330±20 g of body weight, are purchased from Beijing Vital River Experimental Animal Technology Ltd. Co. (The quality certificate number: SCXK (JING) 2002-2003).
(§2) The above pharmaceuticals are prepared with 0.5% of sodium carboxymethylcellulose (CMC-Na) for feeding into the stomach. Benzylpenicillin sodium for injection is the product of North China Pharmaceutical Huasheng Co. Ltd. (Lot: S0511204), and norepinephrine (NE) and 5-hydrotryptamine (5-HT) standards are the products of Sigma Co. Other reagents are all marketed.
(§3) 7.4.1 Group division and administration of drug: The rats are grouped randomly into 6 groups. 1. […]
7.5.1 Open field activity experiment: The open field activity box (1 m×1 m×0.4 m) is constructed by the light blue plywood and the aluminum alloy frame. […] The rat is placed in the center of the central grids, and the rat's cross-grid number (the number of crossing into the neighboring gird more than 3 claws) and rat's standing number (two forelimbs leaving the ground for more than 1 cm) are calculated/observed within 3 minutes.
(§4) 7.6 Statistic calculation: The experimental data are represented as X+SD, and the experimental result is calculated as ANOVA by SPSS 11.5 statistic software.

For experiment [2], the system named is unpredictable long-term stimulus model. The experiment can be described thus: Step-through test (passive avoidance), unpredictable long-term stimulus model (Experiment 8). The settings on record: 2 mg/kg/d into the stomach, 24 days. It is filed as in vivo, rat. From the text: 7.5.2 Passive avoidance experiment (Step-through test): The step through box is configured by the light chamber and the dark chamber, and a channel is linked between the bright chamber and the dark chamber for mouse entrance and exit. The grille of the dark chamber is connected to the electric shock equipment, and a mobile plate is set there between. If the rat enters into the dark chamber, the rat will be electrically shocked. During training, the rat is placed in the light chamber and is back in the hole for adaptation for 5 minutes. Then the plate is removed and the rat is observed for another 5 minutes. The time that the rat enters into for the first time is recorded (electric-shocking latent period), and the time thereof is the learning record. After 24 hours, the test is repeated. The plate is removed and the dark chamber is electrified for 5 minutes so as to observe the time that the rat enters into the dark chamber for the first time. This is thereof the memory record.
Unpredictable long-term stimulus model: Health Wistar male rats, secondary, 240˜270 g of body weight, are purchased from Beijing Vital River Experimental Animal Technology Ltd. Co. (The quality certificate number: SOCK (JING) 2002-2003). […]
8.6 Statistic calculation: The experimental data are represented as […], and the experimental result is calculated as ANOVA by SPSS 11.5 statistic software.

Experiment [3] deals with rat olfactory bulb lesion model. The experiment in a line: Step through test (passive avoidance) of the rat olfactory bulb lesion model (Experiment 7). It counts as in vivo. The settings on record: 2 mg/kg/d into the stomach, 24 days. The protocol:
as §1, §2, §3
7.5.2 Passive avoidance experiment (Step-through test): The step through box is configured by the light chamber and the dark chamber, and a channel is linked between the bright chamber and the dark chamber for mouse entrance and exit. […] The time that the rat enters into for the first time is recorded (electric-shocking latent period), and the time thereof is the learning record. […]
as §4

Regarding `Fc1ccc([C@@H]2CCNC[C@H]2COc2ccc3c(c2)OCO3)cc1` [Paroxetine], the Decreased temperature with ICR mice (3 mg/kg P.O. 7 days, 4 h after Resetpine 2 mg/kg i.p.) was found to be 2.38 ± 0.69 °C. Moreover, the “Effect on reduced body temperature induced by Resetpine (in words)” value with ICR mice (middle dose of Embodiment 2, Paroxetine) was “decrease the reduced body temperature induced by Resetpine”. In experiment [1], the “Horizontal movement (cross-grid number)” value is listed as 55.36 ± 25.96 and the “Vertical movement (standing number)” value came out at 14.36 ± 5.55. The “Latent period of first day” value in experiment [2] (learning record) is given as 75.75 ± 46.52 s. Further, the “Latent period of second day” value in experiment [2] (memory record) is recorded as 257.46 ± 66.92 s. Besides, in experiment [3] (learning record), the “Latent period of the 1st day” value was 181.87 ± 90.54 s. Besides, the “Latent period of the 2nd day” value in experiment [3] (memory record) was determined as 265.00 ± 65.39 s.
